# Assay results published in patent US20250312349A1, “COMPOSITION AND METHODS OF TREATING INTRACELLULAR PATHOGEN INFECTION” (UNIVERSITY HOSPITALS CLEVELAND MEDICAL CENTER, priority 2024, published 2025).
# Key:
# CHO cells = assay: MTT assay of potential cell toxicity, CHO cells; assay type: cell-based, Chinese Hamster; settings: 1 μM, 24 hrs
# Description: FIG. 9 illustrates graphs showing the assessment of potential cell toxicity of Saracatinib. CHO cells and retinal pigment epithelial cells (RPE) were treated with various concentrations of Saracatinib (1 nM-1000 μM) followed by MTT assay 24 hrs. after incubation with Saracatinib. The data are pooled from duplicate or triplicate independent samples obtained in 3 different experiments. […] Data are shown as mean±SEM. Significance was determined by comparing all groups to the control using one-way ANOVA with Holm-Sidak multiple comparison test (*p<0.05). (PDF)
# T. gondii = assay: In-out assay of parasite invasion of host cells (SAG1 staining); assay type: cell-based, Toxoplasma gondii; settings: CHO cells, 1 μM, RH-RFP T. gondii, 2 hours
# Description: (A) CHO cells were treated with Saracatinib (1 μM) and infected with RH-RFP T. gondii for 2 hours. Cells were fixed with Paraformaldehyde (PFA) and were not permeabilized prior to staining with a tachyzoite marker, SAG1. […] will express red fluorescence while extracellular parasites stain for SAG1 and appear green or yellow in color. Data are shown as mean±SEM. The graphs show data from 7 independent monolayers pooled from 2 different experiments. (B) CHO cells were treated with Saracatinib (1 μM) and infected with RH-RFP T. gondii for 24 hours. Number of tachyzoites per vacuole were determined by light microscopy and quantified as percentage of total vacuoles. Data are shown as mean±SEM. The graphs show data from 6 independent monolayers pooled from 3 different experiments. […] (PDF)
# Mammalian cells were infected with RFP-T. gondii (RH) and fixed with 4% paraformaldehyde. Cells were stained with antibodies against LC3 (MBL International, Woburn, MA), LAMP1 (DSHB, Iowa City, IA), or GRA7 (gift from John Boothroyd, Stanford University, Stanford, CA) followed by a fluorescently conjugated secondary antibodies (Jackson ImmunoResearch Laboratories, West Grove, PA). LC3 and LAMP1 were evaluated for accumulation at 5- and 7 hours post-infection, respectively. […] Parasites were evaluated blindly in multiple random fields of view and 100 parasites were examined per group. […]
# LAMP1 = assay: Immunofluorescence of LAMP1 accumulation around parasites; assay type: cell-based; settings: CHO cells and brain endothelial cells, 1 μM, 7 hours
# Description: FIGS. 3(A-L) illustrate images and graphs showing T. gondii killing induced by Src inhibition is mediated by autophagy. (A-C) CHO cells and primary brain endothelial cells expressing WT or DN EGFR were infected with RFP-T. gondii and treated with Saracatinib 1 μM for 5 hours before staining with an anti-LC3 antibody. Accumulation of LC3 around the parasites was assessed by confocal microscopy. Scale bar, 10 μm. (D-F) CHO cells and primary brain endothelial cells expressing WT or DN EGFR were infected with RFP-T. gondii and treated with Saracatinib 1 μM for 7 hours before staining with anti-LAMP1 antibody. Accumulation of LAMP1 around parasites was assessed as above. G-I) CHO cells and primary brain endothelial cells expressing WT or DN EGFR were transfected with control siRNA or ULK1 siRNA. Relative density of ULK1 was normalized to total Actin followed by normalization relative to Ctr siRNA. […] Cells were treated with or without Saracatinib and infected with RH T. gondii. Monolayers were examined at 24 h. […]
# Mammalian cells were infected with RFP-T. gondii (RH) and fixed with 4% paraformaldehyde. […] LC3 and LAMP1 were evaluated for accumulation at 5- and 7 hours post-infection, respectively. […] Parasites were evaluated blindly in multiple random fields of view and 100 parasites were examined per group. […]
# phospho-S473 Akt = assay: Confocal microscopy of phospho-S473 Akt accumulation around parasites in CHO cells; assay type: cell-based, Chinese Hamster; settings: RFP-T. gondii
# Description: (§1) Mammalian cells were infected with RFP-T. gondii (RH) and fixed with 4% paraformaldehyde. Cells were stained with antibodies against LC3 (MBL International, Woburn, MA), LAMP1 (DSHB, Iowa City, IA), or GRA7 (gift from John Boothroyd, Stanford University, Stanford, CA) followed by a fluorescently conjugated secondary antibodies (Jackson ImmunoResearch Laboratories, West Grove, PA). LC3 and LAMP1 were evaluated for accumulation at 5- and 7 hours post-infection, respectively. Cells were stained with antibodies against PTEN (Santa Cruz Biotechnology, Dallas, TX) or anti-phospho S473 Akt (Novus, Centennial, CO). Frozen brain sections were stained with antibodies against PTEN (Novus, Centennial, CO), phospho S473 Akt, SAG-1 (Invitrogen, Waltham, MA) or T. gondii (Biogenex, Fremont, CA). Parasites were evaluated blindly in multiple random fields of view and 100 parasites were examined per group. In-out assays were performed as described using RFP-T gondii, anti-SAG-1 antibody (Invitrogen, Waltham, MA) and an Alexa Fluor 488-conjugated secondary antibody. Olympus FV1200 confocal microscope (Evident/Olympus, Waltham, MA) equipped with UPlanSApa 60× and 100× 1.45NA objectives was used to evaluate the slides.
# PTEN [1] = assay: Immunoblot of PTEN phosphorylation in T. gondii-infected CHO cells; assay type: cell-based, Chinese Hamster; settings: lysates at 2 h
# Description: Membranes were probed with antibodies against Src, phospho-Y416 Src, Akt, phospho-S473 Akt, PTEN, phospho-[…] PTEN, PI3K, phospho-Y458/Y199 PI3K, ULK1, EGFR, HA tag (all from Cell Signaling, Danvers, MA), phospho-Y240 PTEN (Sigma) and Actin (Santa Cruz Biotechnologies) followed by incubation with secondary antibodies (Cell Signaling and Santa Cruz Biotechnologies). Three independent experiments were performed.
# PTEN [2] = assay: Confocal microscopy of PTEN and GRA7 around parasites in CHO cells; assay type: cell-based, Chinese Hamster; settings: RFP-T. gondii
# Description: as §1
# ME49 T. gondii [3] = assay: Pre-established ocular and cerebral toxoplasmosis in B6 mice, 4 weeks of treatment; assay type: in vivo, C57BL/6 mice; settings: four weeks
# Source text: Brains and eyes were fixed in 10% formalin before paraffin embedding. Hematoxylin & eosin (H&E) and periodic acid Schiff hematoxylin (P.A.S.H) were used to stain sections from eyes and brains respectively. Brain and ocular histopathology were scored as described previously.
# [4] = test system: phospho-S473 Akt and PTEN around tachyzoites; assay: Immunofluorescence of brain sections from infected mice treated for four days; assay type: in vivo, C57BL/6 mice; settings: 10 mg kg^-1 twice daily for 4 days
# Source text: Scale bar, 50 m. […] Scale bar, 50 m. […] (G). […] Results are representative of 2 independent experiments. […] Scale bar, 10 m.
# C57BL/6 mice (Jackson Laboratories, Bar Harbor, ME) or Becn 1^+/− (C57BL/6 background; gift from Beth Levine, University of Texas Southwestern, Dallas, TX) were bred at the Animal Resource Center at Case Western Reserve University. Female mice between the ages of 6 to 8 weeks old were infected with 10 cysts of the ME49 T. gondii for four weeks. In certain experiments, mice were euthanized at 4 weeks to evaluate severity of ocular and cerebral toxoplasmosis.
# ME49 T. gondii [5] = assay: Ocular and cerebral toxoplasmosis in Dexamethasone-treated mice; assay type: in vivo, C57BL/6 mice; settings: 10 mg kg-1 twice per day, 2 weeks, vs vehicle
# EGS T. gondii cysts = assay: Parasite cysts in CHO cells infected with EGS T. gondii; assay type: cell-based, Toxoplasma gondii; settings: Saracatinib 1 μM, 4 days
# Source text: We infected CHO cells with EGS T. gondii, a strain of the parasite that spontaneously form cysts in vitro.
# [6] = Brain penetration and tolerability of Saracatinib; assay type: in vivo; settings: mice, 10 or 15 mg kg^-1 twice per day
# [7] = in vivo; cited from earlier work
# [8] = 10 or 15 mg kg^-1 oral gavage twice per day
compound,measurement,setting,value
"CN1CCN(CCOc2cc(OC3CCOCC3)c3c(Nc4c(Cl)ccc5c4OCO5)ncnc3c2)CC1 [Saracatinib, N-(5-chloro-1,3-benzodioxol-4-yl)-7-(2-(4-methylpiperazin-1-yl)ethoxy)-5-(tetrahydro-2H-pyran-4-yloxy)quinazolin-4-amine]",cell toxicity (MTT),CHO cells,non-toxic
same,parasite invasion of host cells,T. gondii,did not affect
same,accumulation of LAMP1 around intracellular parasites,LAMP1,"accumulation of the lysosomal marker, LAMP1, was observed"
same,accumulation of phospho-S473 Akt around intracellular parasites,phospho-S473 Akt,inhibited
same,"PTEN phosphorylation at Tyr240, Ser380 and Thr382/383",PTEN [1],reduced
same,association of PTEN to the PVM,PTEN [2],co-expression of PTEN and GRA7
same,mice with no significant ocular inflammation,ME49 T. gondii [3]; 15 mg kg^-1 twice per day,75%
same,perivascular and diffuse inflammation in the brains,ME49 T. gondii [3]; 15 mg kg^-1 twice per day,No significant perivascular and diffuse inflammation were detected
same,histopathology in eye and brain,ME49 T. gondii [3]; [8],marked reduction
same,parasite load in the eye and brain,ME49 T. gondii [3]; [8],profound reduction
same,phospho-S473 Akt accumulation around tachyzoites,[4],markedly reduced
same,recruitment of PTEN around tachyzoites,[4],induced recruitment
same,histopathology in the eye and brain,ME49 T. gondii [5],significantly reduced
same,parasite load in the eye and brain,ME49 T. gondii [5],significantly reduced
same,morphology of bradyzoites in remaining cysts,EGS T. gondii cysts,altered morphology
same,reduction in the number of cysts,EGS T. gondii cysts,~60%
same,predicted brain concentrations,[6],~0.2 µM
same,blood-brain barrier penetration,[7],penetrates the blood-brain barrier
same,tolerability,[7],well-tolerated
